The text below walks through data of patent US20240239784A1, “INDOLE COMPOUNDS AND METHODS OF USE” (GENZYME CORPORATION, priority 2021, published 2024).

The test system of this experiment is NBD1. The experiment can be described thus: Aggregation analysis of NBD1 thermal stability by differential static light scattering (DSLS). The class given is binding, Human. The following applies: compound at 100 μM; ΔTagg versus DMSO control. As for the experimental part: Purified recombinant NBD1 was produced using previously described methods (A. Schmidt, J. L. Mendoza, P. J. Thomas (2011) Biochemical and Biophysical Approaches to Probe CFTR Structure (365-376) M. D. Amaral, K. Kunzelmann (eds.), Cysic Fibrosis, Methods in Molecular Biology 741, Springer Science+Business Media). The effect of test compounds on thermal stability of NBD1 was evaluated by differential static light scattering (DSLS) using the Harbinger Stargazer-384 instrument (Epiphyte Three, Toronto, Canada). Test compounds were dissolved and diluted to desired concentrations in 100% DMSO. The compounds or DMSO controls (100 nL) were stamped into wells of a […] low volume optical plate (Corning Inc., Corning, NY) using the Echo 555 acoustic liquid handler (Labcyte Inc., San Jose, CA).
NBD1 protein was diluted to 0.2 mg/ml in S200 buffer (50 mM Tris-HCl, 150 mM NaCl, 5 mM MgCl2, 2 mM ATP, 2 mM DTT, pH7.6) containing 1% glycerol. 10 uL of protein solution was aliquoted into the 384-well plate harboring the test compounds and 10 uL mineral oil was overlayed onto the protein solution, using the epMotion robotic liquid handler (Eppendorf North America, Hauppauge, NY). After placing into the Stargazer instrument, the plate was heated at 1° C. per minute to 70° C. Images were captured from 25° C. to 70° C. every 0.5° C. At the end of the experiment run, instrument software integrated image files and analyzed data automatically. A […] regression curve was generated for each well, representing the increase in light scattering over time. A temperature of aggregation (Tagg) was calculated based on the inflection point of the curve. To better compare data across experiments the average Tagg for DMSO control wells was calculated and subtracted from values for wells containing compounds to obtain a “ΔTagg” value. These ΔTagg values reflect stabilizing efficacy of the compounds.
As for `CC(O)(c1ccccc1)c1cnc(-c2cccc(Oc3c(F)cc4[nH]ccc4c3CO)c2)[nH]1` (stereo not shown) [Example 8, 1-(2-(3-((6-Fluoro-4-(hydroxymethyl)-1H-indol-5-yl)oxy)phenyl)-1H-imidazol-5-yl)-1-phenylethan-1-ol], the “DSLS NBD1/3D Human Stability delta-T (° C.) @ 100 (μM)” value (from here on “DSLS NBD1/3D Human Stability delta-T”) is reported as “A (T ≥8° C.)”.

Regarding `CC(O)(c1ccccc1)c1nnc(-c2cccc(Oc3ccc4[nH]ccc4n3)c2)[nH]1` (stereo not shown) [Example 16, 1-(5-(3-((1H-Pyrrolo[3,2-b]pyridin-5-yl)oxy)phenyl)-4H-1,2,4-triazol-3-yl)-1-phenylethan-1-ol], the “DSLS NBD1/3D Human Stability delta-T” value is “B (4-8° C.)”.

As for `OC(c1cccc(-c2nnc(Cc3ccccc3)[nH]2)c1)c1ccc2[nH]ccc2c1` (single isomer, unassigned) [Example 35A, (3-(5-Benzyl-4H-1,2,4-triazol-3-yl)phenyl)(1H-indol-5-yl)methanol], the “DSLS NBD1/3D Human Stability delta-T” value was “B (4-8° C.)”.

Turning to `CC(O)(c1ccccc1)c1cnc(-c2cccc(Oc3c(F)cc4[nH]ccc4c3C(N)=O)c2)[nH]1` (stereo not shown) [Example 9, 6-Fluoro-5-(3-(5-(1-hydroxy-1-phenylethyl)-1H-imidazol-2-yl)phenoxy)-1H-indole-4-carboxamide], the “DSLS NBD1/3D Human Stability delta-T” value is “A (T ≥8° C.)”.

Regarding `CC(O)(c1ccccc1)c1cnc(-c2cccc(Oc3cc(F)c4[nH]ccc4c3)c2)[nH]1` (stereo not shown) [Example 69, 1-(2-(3-((7-Fluoro-1H-indol-5-yl)oxy)phenyl)-1H-imidazol-5-yl)-1-phenylethan-1-ol], the “DSLS NBD1/3D Human Stability delta-T” value is listed as “B (4-8° C.)”.

As for `O=C(O)CC(c1cccc(-c2nnc(Cc3ccccc3)[nH]2)c1)c1ccc2[nH]ccc2c1` (stereo not shown) [Example 37, 3-(3-(5-Benzyl-4H-1,2,4-triazol-3-yl)phenyl)-3˜(1H-indol-5-yl)propanoic acid], the “DSLS NBD1/3D Human Stability delta-T” value is “C (≤4° C.)”.

`NC(=O)Cc1c(Oc2cccc(-c3nnc(Cc4ccccc4)[nH]3)c2)ccc2[nH]ccc12` [Example 51, 2-(5-(3-(5-Benzyl-4H-1,2,4-triazol-3-yl)phenoxy)-1H-indol-4-yl)acetamide]: the “DSLS NBD1/3D Human Stability delta-T” value is “B (4-8° C.)”.

Take `CC(O)(c1ccccc1)c1c[nH]c(-c2cc(Oc3c(F)cc4[nH]ccc4c3CC3SC(=O)NC3=O)ccc2F)n1` (stereo not shown) [Example 1, 5-((6-Fluoro-5-(4-fluoro-3-(4-(1-hydroxy-1-phenylethyl)-1H-imidazol-2-yl)phenoxy)-1H-indol-4-yl)methyl)thiazolidine-2,4-dione]: the “DSLS NBD1/3D Human Stability delta-T” value is reported as “A (T ≥8° C.)”.

`COCC[S+]([O-])c1c(Oc2cccc(-c3ncc(C(C)(O)c4ccccc4)[nH]3)c2)c(F)cc2[nH]ccc12` (stereo not shown) [Example 62, 1-(2-(3-((6-Fluoro-4-((2-methoxyethyl)sulfinyl)-1H-indol-5-yl)oxy)phenyl)-1H-imidazol-5-yl)-1-phenylethan-1-ol]: the “DSLS NBD1/3D Human Stability delta-T” value was “B (4-8° C.)”.

Consider `NC(=O)CC(c1cccc(-c2nnc(Cc3ccccc3)[nH]2)c1)c1ccc2[nH]ccc2c1` (stereo not shown) [Example 38, 3-(3-(5-Benzyl-4H-1,2,4-triazol-3-yl)phenyl)-3-(1H-indol-5-yl)propanamide], for which the “DSLS NBD1/3D Human Stability delta-T” value is “C (≤4° C.)”.

For `[O-][S+](c1ccccc1)c1cnc(-c2cccc(Oc3ccc4[nH]ccc4c3)c2)[nH]1` (stereo not shown) [Example 31, 5-(3-(5-(Phenylsulfinyl)-1H-imidazol-2-yl)phenoxy)-1H-indole], the “DSLS NBD1/3D Human Stability delta-T” value is on record as “B (4-8° C.)”.

For the compound `CS(=O)(=O)c1c(Oc2cccc(-c3ncc(C(O)c4ccccc4)[nH]3)c2)c(F)cc2[nH]ccc12` (stereo not shown) [Example 14, (2-(3-((6-Fluoro-4-(methylsulfonyl)-1H-indol-5-yl)oxy)phenyl)-1H-imidazol-5-yl)(phenyl)methanol], the “DSLS NBD1/3D Human Stability delta-T” value is given as “A (T ≥8° C.)”.

Consider `CC(C)NCc1c(Oc2cccc(-c3nnc(Cc4ccccc4)[nH]3)c2)ccc2[nH]ccc12` [Example 21, N-((5-(3-(5-Benzyl-4H-1,2,4-triazol-3-yl)phenoxy)-1H-indol-4-yl)methyl)propan-2-amine 2,2,2-trifluoroacetate], for which the “DSLS NBD1/3D Human Stability delta-T” value was “B (4-8° C.)”.

Regarding `CC(O)(c1ccccc1)c1cnc(-c2cccc(Oc3ccc4[nH]ccc4c3S(C)(=O)=O)c2)[nH]1` (single isomer, unassigned) [Example 63A, 1-(2-(3-((4-(methylsulfonyl)-1H-indol-5-yl)oxy)phenyl)-1H-imidazol-5-yl)-1-phenylethan-1-ol], the “DSLS NBD1/3D Human Stability delta-T” value is “A (T ≥8° C.)”.

In the case of `Cc1c(Oc2ccc(F)c(-c3nc(C(C)(CO)c4ccccc4)c[nH]3)c2)c(F)cc2[nH]ccc12` (stereo not shown) [Example 77, 2-(2-(2-Fluoro-5-((6-fluoro-4-methyl-1H-indol-5-yl)oxy)phenyl)-1H-imidazol-4-yl)-2-phenylpropan-1-ol], the “DSLS NBD1/3D Human Stability delta-T” value was “B (4-8° C.)”.

`CC(O)c1c(Oc2cccc(-c3nc(C(C)(O)c4ccccc4)c[nH]3)c2)c(F)cc2[nH]ccc12` (stereo not shown) [Example 66, 1-(2-(3-((6-Fluoro-4-(1-hydroxyethyl)-1H-indol-5-yl)oxy)phenyl)-1H-imidazol-4-yl)-1-phenylethan-1-ol]: the “DSLS NBD1/3D Human Stability delta-T” value was “A (T ≥8° C.)”.

With `NC(c1ccccc1)c1nnc(-c2cccc(Oc3ccc4[nH]ccc4n3)c2)[nH]1` (stereo not shown) [Example 17, (5-(3-((1H-Pyrrolo[3,2-b]pyridin-5-yl)oxy)phenyl)-4H-1,2,4-triazol-3-yl)(phenyl)methanamine], the “DSLS NBD1/3D Human Stability delta-T” value is recorded as “B (4-8° C.)”.

With `CS(=O)(=O)NC(=O)CCc1c(Oc2cccc(-c3nnc(Cc4ccccc4)[nH]3)c2)ccc2[nH]ccc12` [Example 59, 3-(5-(3-(5-Benzyl-4H-1,2,4-triazol-3-yl)phenoxy)-1H-indol-4-yl)-N-(methylsulfonyl)propanamide], the “DSLS NBD1/3D Human Stability delta-T” value is “B (4-8° C.)”.

In the case of `CC(O)(c1ccccc1)c1c[nH]c(-c2cc(Oc3c(F)cc4[nH]ccc4c3S(C)(=N)=O)ccc2F)n1` (stereo not shown) [Example 6, (6-fluoro-5-(4-fluoro-3-(4-(1-hydroxy-1-phenylethyl)-1H-imidazol-2-y1)phenoxy)-1H-indol-4-y1)(imino)(methyl)-16-sulfanone], the “DSLS NBD1/3D Human Stability delta-T” value was “A (T ≥8° C.)”.

For the compound `OCc1c(Oc2cccc(-c3nnc(Cc4ccccc4)[nH]3)c2)ccc2[nH]ccc12` [Example 20, (5-(3-(5-Benzyl-4H-1,2,4-triazol-3-yl)phenoxy)-1H-indol-4-yl)methanol], the “DSLS NBD1/3D Human Stability delta-T” value was “B (4-8° C.)”.

For the compound `O=S(=O)(c1ccccc1)c1cnc(-c2cccc(Oc3ccc4[nH]ccc4c3)c2)[nH]1` [Example 32, 5-(3-(5-(Phenylsulfonyl)-1H-imidazol-2-yl)phenoxy)-1H-indole], the “DSLS NBD1/3D Human Stability delta-T” value is recorded as “B (4-8° C.)”.

Consider `CC(O)(c1ccccc1)c1cnc(-c2cc(Oc3c(F)cc4[nH]ccc4c3CCC(=O)O)ccc2F)[nH]1` (stereo not shown) [Example 71, 3-(6-Fluoro-5-(4-fluoro-3-(5-(1-hydroxy-1-phenylethyl)-1H-imidazol-2-yl)phenoxy)-1H-indol-4-yl)propanoic acid], for which the “DSLS NBD1/3D Human Stability delta-T” value is reported as “A (T ≥8° C.)”.

In the case of `O=C(O)c1c(Oc2cccc(-c3ncc(C(O)c4ccccc4)[nH]3)c2)ccc2[nH]ncc12` (stereo not shown) [Example 27, 5-(3-(5-(Hydroxy(phenyl)methyl)-1H-imidazol-2-yl)phenoxy)-1H-indazole-4-carboxylic acid], the “DSLS NBD1/3D Human Stability delta-T” value is “C (≤4° C.)”.

`Nc1cnc(-c2nnc(Cc3ccccc3)[nH]2)cc1Oc1ccc2[nH]ccc2c1` [Example 44, 4-((1H-Indol-5-yl)oxy)-6-(5-benzyl-4H-1,2,4-triazol-3-yl)pyridin-3-amine]: the “DSLS NBD1/3D Human Stability delta-T” value is listed as “B (4-8° C.)”.

In the case of `CN(C)CCNC(c1ccccc1)c1c[nH]c(-c2cccc(Oc3ccc4[nH]ccc4n3)c2)n1` (stereo not shown) [Example 54, N1-((2-(3-((1H-pyrrolo[3,2-b]pyridin-5-yl)oxy)phenyl)-1H-imidazol-5-yl)(phenyl)methyl)-N2,N2-dimethylethane-1,2-diamine], the “DSLS NBD1/3D Human Stability delta-T” value was “B (4-8° C.)”.

As to `CC(C)(c1ccccc1)c1cnc(-c2cc(Oc3c(F)cc4[nH]ccc4c3CC(=O)O)ccc2F)[nH]1` [Example 4, 2-(6-Fluoro-5-(4-fluoro-3-(5-(2-phenylpropan-2-yl)-1H-imidazol-2-yl)phenoxy)-1H-indol-4-yl)acetic acid], the “DSLS NBD1/3D Human Stability delta-T” value was “A (T ≥8° C.)”.

For the compound `O=C(c1cccc(-c2nnc(Cc3ccccc3)[nH]2)c1)c1ccc2[nH]ccc2c1` [Example 34, (3-(5-Benzyl-4H-1,2,4-triazol-3-yl)phenyl)(1H-indol-5-yl)methanone], the “DSLS NBD1/3D Human Stability delta-T” value was “C (≤4° C.)”.

Turning to `c1ccc(Cc2coc(-c3cccc(Oc4ccc5[nH]ccc5c4)c3)n2)cc1` [Example 47, 2-(3-((1H-Indol-5-yl)oxy)phenyl)-4-benzyloxazole], the “DSLS NBD1/3D Human Stability delta-T” value is reported as “C (≤4° C.)”.
